Data reported in EP4745137A1 (Gluetacs Therapeutics (Shanghai) Co., Ltd., priority 2023, dated 2025).
pIC50: −log10 of the molar value.

How the values were obtained:
[1] = molecular target: T1, WEE1 (Homo sapiens, UniProt P30291+Q96SW2); assay: Western-blot assay of substrate protein degradation in hPBMCs, WEE1; assay type: cell-based; conditions: 24 hours of compound treatment, compounds tested at 50 nM and 500 nM (concentration of the table not stated)
T1 construct: endogenous in cells; host or cells: hPBMCs (Milecell Biotechnologies)
T1 sequence (P30291 whole entry): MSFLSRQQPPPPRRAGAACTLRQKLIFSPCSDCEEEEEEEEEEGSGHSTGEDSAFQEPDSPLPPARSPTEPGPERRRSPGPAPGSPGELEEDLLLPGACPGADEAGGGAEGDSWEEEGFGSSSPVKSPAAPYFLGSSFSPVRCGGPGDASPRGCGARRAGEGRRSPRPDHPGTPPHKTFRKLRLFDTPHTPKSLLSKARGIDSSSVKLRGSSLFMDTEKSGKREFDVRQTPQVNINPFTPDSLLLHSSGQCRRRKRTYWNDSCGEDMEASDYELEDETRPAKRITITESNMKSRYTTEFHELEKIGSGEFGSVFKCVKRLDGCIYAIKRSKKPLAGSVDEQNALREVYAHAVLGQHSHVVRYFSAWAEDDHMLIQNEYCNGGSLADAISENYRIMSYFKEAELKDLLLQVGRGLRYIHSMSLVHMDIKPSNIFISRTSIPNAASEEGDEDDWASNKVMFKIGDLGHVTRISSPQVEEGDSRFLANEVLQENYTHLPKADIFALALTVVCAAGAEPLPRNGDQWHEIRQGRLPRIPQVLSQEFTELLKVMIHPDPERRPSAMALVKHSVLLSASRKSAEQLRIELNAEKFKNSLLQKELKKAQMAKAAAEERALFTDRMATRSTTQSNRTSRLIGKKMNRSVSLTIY
T1 sequence (Q96SW2 whole entry): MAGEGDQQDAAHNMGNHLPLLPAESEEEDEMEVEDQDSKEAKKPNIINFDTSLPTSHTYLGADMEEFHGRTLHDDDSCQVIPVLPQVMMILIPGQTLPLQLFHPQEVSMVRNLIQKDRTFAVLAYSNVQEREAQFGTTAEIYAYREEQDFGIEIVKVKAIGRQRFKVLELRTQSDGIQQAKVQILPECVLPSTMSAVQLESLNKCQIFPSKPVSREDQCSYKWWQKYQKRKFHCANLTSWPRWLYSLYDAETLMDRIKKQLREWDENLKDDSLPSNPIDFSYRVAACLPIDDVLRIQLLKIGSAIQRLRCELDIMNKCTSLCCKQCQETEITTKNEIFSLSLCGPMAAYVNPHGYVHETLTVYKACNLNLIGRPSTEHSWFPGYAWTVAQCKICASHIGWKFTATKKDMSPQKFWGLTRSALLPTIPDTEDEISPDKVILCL
T1 sequence (Q16531 whole entry partner): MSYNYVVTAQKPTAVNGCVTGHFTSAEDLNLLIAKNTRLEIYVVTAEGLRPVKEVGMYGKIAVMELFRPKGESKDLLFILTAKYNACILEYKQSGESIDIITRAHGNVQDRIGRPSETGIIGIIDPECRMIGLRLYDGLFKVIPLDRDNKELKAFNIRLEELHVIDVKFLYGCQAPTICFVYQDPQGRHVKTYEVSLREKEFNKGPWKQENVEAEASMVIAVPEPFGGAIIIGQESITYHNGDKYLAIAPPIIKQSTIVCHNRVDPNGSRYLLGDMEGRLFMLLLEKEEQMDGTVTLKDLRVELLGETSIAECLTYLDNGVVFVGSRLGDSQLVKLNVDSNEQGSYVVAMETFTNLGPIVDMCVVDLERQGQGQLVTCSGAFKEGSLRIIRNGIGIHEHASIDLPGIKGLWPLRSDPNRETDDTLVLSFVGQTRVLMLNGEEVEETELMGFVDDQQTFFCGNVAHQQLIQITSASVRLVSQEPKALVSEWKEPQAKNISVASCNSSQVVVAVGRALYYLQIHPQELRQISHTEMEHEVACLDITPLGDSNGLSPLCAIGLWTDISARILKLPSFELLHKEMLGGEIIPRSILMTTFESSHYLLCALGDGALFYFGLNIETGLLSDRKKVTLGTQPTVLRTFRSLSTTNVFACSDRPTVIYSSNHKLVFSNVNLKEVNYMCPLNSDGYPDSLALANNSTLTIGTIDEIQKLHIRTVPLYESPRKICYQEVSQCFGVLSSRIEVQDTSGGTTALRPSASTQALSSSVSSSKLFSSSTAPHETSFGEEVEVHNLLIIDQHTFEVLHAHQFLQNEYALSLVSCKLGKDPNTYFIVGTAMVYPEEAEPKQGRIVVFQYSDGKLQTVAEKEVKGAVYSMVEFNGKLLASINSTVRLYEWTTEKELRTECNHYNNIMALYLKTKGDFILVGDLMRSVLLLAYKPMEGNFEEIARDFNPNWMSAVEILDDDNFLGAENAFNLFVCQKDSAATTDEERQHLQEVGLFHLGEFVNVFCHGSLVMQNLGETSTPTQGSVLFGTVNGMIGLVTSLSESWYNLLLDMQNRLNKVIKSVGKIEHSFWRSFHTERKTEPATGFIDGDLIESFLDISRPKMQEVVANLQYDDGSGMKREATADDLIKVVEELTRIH

[2] = molecular target: T2, IKZF1 (Homo sapiens, UniProt Q13422+Q96SW2); assay: Western-blot assay of substrate protein degradation in hPBMCs, IKZF1; assay type: cell-based; conditions: 24 hours of compound treatment, compounds tested at 50 nM and 500 nM (concentration of the table not stated)
T2 construct: endogenous in cells; host or cells: hPBMCs (Milecell Biotechnologies)
T2 sequence (Q13422 whole entry): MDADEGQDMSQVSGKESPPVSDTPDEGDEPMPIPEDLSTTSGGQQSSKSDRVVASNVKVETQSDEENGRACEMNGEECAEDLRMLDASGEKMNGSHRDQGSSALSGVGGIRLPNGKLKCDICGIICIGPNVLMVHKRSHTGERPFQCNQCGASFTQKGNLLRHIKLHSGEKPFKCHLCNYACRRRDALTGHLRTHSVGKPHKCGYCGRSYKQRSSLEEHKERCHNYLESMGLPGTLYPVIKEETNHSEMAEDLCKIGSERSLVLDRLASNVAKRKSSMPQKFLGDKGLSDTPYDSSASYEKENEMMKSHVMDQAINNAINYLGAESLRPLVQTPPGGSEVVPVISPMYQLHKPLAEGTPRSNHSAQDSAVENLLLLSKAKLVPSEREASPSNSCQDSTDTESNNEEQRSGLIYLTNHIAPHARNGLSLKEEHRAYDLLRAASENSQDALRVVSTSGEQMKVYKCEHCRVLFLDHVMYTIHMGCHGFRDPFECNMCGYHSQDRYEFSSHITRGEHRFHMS
T2 sequence (Q96SW2 whole entry): as the sequence (Q96SW2 whole entry) above
T2 sequence (Q16531 whole entry partner): as the sequence (Q16531 whole entry partner) above

[3] = molecular target: T3, IKZF2 (Homo sapiens, UniProt Q96SW2+Q9UKS7); assay: Western-blot assay of substrate protein degradation in hPBMCs, IKZF2; assay type: cell-based; conditions: 24 hours of compound treatment, compounds tested at 50 nM and 500 nM (concentration of the table not stated)
T3 construct: endogenous in cells; host or cells: hPBMCs (Milecell Biotechnologies)
T3 sequence (Q9UKS7 whole entry): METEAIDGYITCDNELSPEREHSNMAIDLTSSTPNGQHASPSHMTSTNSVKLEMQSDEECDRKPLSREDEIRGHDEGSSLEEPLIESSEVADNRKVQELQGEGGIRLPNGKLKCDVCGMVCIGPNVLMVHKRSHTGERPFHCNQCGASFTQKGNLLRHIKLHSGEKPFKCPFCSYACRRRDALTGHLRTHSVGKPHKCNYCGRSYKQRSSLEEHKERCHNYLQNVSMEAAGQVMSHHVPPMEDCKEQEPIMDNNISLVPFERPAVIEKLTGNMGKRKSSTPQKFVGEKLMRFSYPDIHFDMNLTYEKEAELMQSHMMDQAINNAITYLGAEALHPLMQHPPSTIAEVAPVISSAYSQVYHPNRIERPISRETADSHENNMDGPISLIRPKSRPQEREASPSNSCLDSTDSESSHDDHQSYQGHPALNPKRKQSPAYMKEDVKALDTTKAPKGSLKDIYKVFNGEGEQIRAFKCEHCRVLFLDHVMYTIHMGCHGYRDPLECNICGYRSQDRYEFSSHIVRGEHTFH
T3 sequence (Q96SW2 whole entry): as the sequence (Q96SW2 whole entry) above
T3 sequence (Q16531 whole entry partner): as the sequence (Q16531 whole entry partner) above

[4] = molecular target: T4, IKZF3 (Homo sapiens, UniProt Q96SW2+Q9UKT9); assay: Western-blot assay of substrate protein degradation in hPBMCs, IKZF3; assay type: cell-based; conditions: 24 hours of compound treatment, compounds tested at 50 nM and 500 nM (concentration of the table not stated)
T4 construct: endogenous in cells; host or cells: hPBMCs (Milecell Biotechnologies)
T4 sequence (Q9UKT9 whole entry): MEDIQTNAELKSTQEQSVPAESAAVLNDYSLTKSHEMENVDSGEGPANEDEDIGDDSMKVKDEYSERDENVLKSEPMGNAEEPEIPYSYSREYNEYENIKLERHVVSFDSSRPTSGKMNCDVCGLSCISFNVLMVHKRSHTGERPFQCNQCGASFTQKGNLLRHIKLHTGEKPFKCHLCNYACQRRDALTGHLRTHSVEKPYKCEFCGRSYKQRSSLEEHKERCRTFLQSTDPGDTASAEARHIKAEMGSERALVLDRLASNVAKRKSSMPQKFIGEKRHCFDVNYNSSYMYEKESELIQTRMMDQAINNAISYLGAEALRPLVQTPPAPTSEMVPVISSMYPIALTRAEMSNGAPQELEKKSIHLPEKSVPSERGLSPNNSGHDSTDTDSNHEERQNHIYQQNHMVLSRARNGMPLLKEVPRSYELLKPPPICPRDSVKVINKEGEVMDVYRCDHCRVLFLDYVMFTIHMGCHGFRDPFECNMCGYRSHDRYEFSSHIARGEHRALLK
T4 sequence (Q96SW2 whole entry): as the sequence (Q96SW2 whole entry) above
T4 sequence (Q16531 whole entry partner): as the sequence (Q16531 whole entry partner) above

[5] = molecular target: T5, CK1α (Homo sapiens, UniProt P48729+Q96SW2); assay: Western-blot assay of substrate protein degradation in hPBMCs, CK1α; assay type: cell-based; conditions: 24 hours of compound treatment, compounds tested at 50 nM and 500 nM (concentration of the table not stated)
T5 construct: endogenous in cells; host or cells: hPBMCs (Milecell Biotechnologies)

[6] = molecular target: T6, GSPT1 (Homo sapiens, UniProt P15170+Q96SW2); assay: Western-blot assay of substrate protein degradation in hPBMCs, GSPT1; assay type: cell-based; conditions: 24 hours of compound treatment, compounds tested at 50 nM and 500 nM (concentration of the table not stated)
T6 construct: endogenous in cells; host or cells: hPBMCs (Milecell Biotechnologies)
T6 sequence (P15170 whole entry): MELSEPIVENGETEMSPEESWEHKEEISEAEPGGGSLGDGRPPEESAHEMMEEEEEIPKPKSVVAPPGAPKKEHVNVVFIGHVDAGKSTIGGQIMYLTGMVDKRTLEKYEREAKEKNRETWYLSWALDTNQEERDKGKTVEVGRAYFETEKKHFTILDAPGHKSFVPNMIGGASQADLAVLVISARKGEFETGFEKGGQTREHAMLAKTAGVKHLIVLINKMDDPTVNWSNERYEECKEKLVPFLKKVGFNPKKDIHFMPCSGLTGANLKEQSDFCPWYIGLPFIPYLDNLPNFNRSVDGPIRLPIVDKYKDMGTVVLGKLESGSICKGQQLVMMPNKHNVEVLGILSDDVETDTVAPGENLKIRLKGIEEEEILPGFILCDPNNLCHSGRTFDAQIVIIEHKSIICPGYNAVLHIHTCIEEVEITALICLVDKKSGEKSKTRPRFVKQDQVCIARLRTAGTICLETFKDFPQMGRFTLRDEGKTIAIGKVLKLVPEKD
T6 sequence (Q96SW2 whole entry): as the sequence (Q96SW2 whole entry) above
T6 sequence (Q16531 whole entry partner): as the sequence (Q16531 whole entry partner) above

[7] = molecular target: T7, human Cereblon WT GST-tagged protein (Homo sapiens, UniProt Q96SW2); assay: CRBN-binding affinity by HTRF (CEREBLON BINDING kit); conditions: HTRF inhibitory activity, CEREBLON BINDING kit; read-out: HTRF IC50
T7 construct: purchased CISBIO 64BDCRBNPEH
T7 sequence (Q96SW2 whole entry): as the sequence (Q96SW2 whole entry) above

[8] = test system: SR; assay: Tumor cell proliferation inhibition (CellTiter-Meiluncell Luminescent Cell Viability Assay), SR; conditions: Homo sapiens, 96 h, read-out: inhibitory activity (IC50, nM) against tumor cells proliferation, SR
[9] = test system: Vcap; assay: Tumor cell proliferation inhibition (CellTiter-Meiluncell Luminescent Cell Viability Assay), Vcap; conditions: Homo sapiens, 96 h, read-out: inhibitory activity (IC50, nM) against tumor cells proliferation, Vcap
[10] = test system: MM.1R; assay: Tumor cell proliferation inhibition (CellTiter-Meiluncell Luminescent Cell Viability Assay), MM.1R; conditions: Homo sapiens, 96 h, read-out: inhibitory activity (IC50, nM) against tumor cells proliferation, MM.1R
Procedure: (§1) The tumor cells used herein were cultured in a cell culture medium listed in table 2 at 37°C in an incubator with 5% CO2. Prior to experimentation, all cell lines used were correctly identified by STR profiling, and tested negative for mycoplasma contamination using a mycoplasma detection kit through routine screenings.
(§2) On the following day, the test compounds of the present disclosure were subjected to serial dilution. […] Subsequently, 0.5 µL of the test compound dilution was transferred into the 96-well plate containing the cells, with each well containing 100 µL of cell culture medium. […] Into the 96-well plate, the diluted test compounds and corresponding detection reagents were added, resulting in final test compound concentrations of 500 nM and 10 nM, respectively. The experimental procedure is described below using the diluted 2 µM test compound as an example.
(§3) After the cells were treated with the compounds of the present disclosure for a specified period (the treatment durations were shown in Table 3), the cell viability assay reagent was added to the culture medium according to the kit's instructions to determine cell viability. […] All controls were treated using the same procedure as the compounds of the present disclosure. The growth inhibition curves for the compounds of the present disclosure were plotted using Prism GraphPad software, and the IC50 values were calculated therefrom.

[11] = test system: SW620; assay: Tumor cell proliferation inhibition (CellTiter-Meiluncell Luminescent Cell Viability Assay), SW620; conditions: Homo sapiens, SW-620, 96 h, read-out: inhibitory activity (IC50, nM) against tumor cells proliferation, SW620
[12] = test system: Jurkat; assay: Tumor cell proliferation inhibition (CellTiter-Meiluncell Luminescent Cell Viability Assay), Jurkat; conditions: Homo sapiens, 96 h, read-out: inhibitory activity (IC50, nM) against tumor cells proliferation, Jurkat
Procedure: as §1, §2, §3

[13] = test system: CAL-62; assay: Tumor cell proliferation inhibition (CellTiter-Meiluncell Luminescent Cell Viability Assay), CAL-62; conditions: Homo sapiens, CAL-62, 96 h, read-out: inhibitory activity (IC50, nM) against tumor cells proliferation, CAL-62
[14] = test system: Human acute T lymphocytic leukemia cells (Molt-4); assay: Tumor cell proliferation inhibition (CellTiter-Meiluncell Luminescent Cell Viability Assay), Molt-4; conditions: MOLT-4, 96 h, read-out: inhibitory activity (IC50, nM) against tumor cells proliferation, Molt 4
[15] = test system: MGC803; assay: Tumor cell proliferation inhibition (CellTiter-Meiluncell Luminescent Cell Viability Assay), MGC803; conditions: Homo sapiens, MGC-803, 96 h, read-out: inhibitory activity (IC50, nM) against tumor cells proliferation, MGC803
[16] = test system: CCRF-CEM; assay: Tumor cell proliferation inhibition (CellTiter-Meiluncell Luminescent Cell Viability Assay), CCRF-CEM; conditions: Homo sapiens, 96 h, read-out: inhibitory activity (IC50, nM) against tumor cells proliferation, CCRF-CEM
[17] = test system: NCI-H1975; assay: Tumor cell proliferation inhibition (CellTiter-Meiluncell Luminescent Cell Viability Assay), NCI-H1975; conditions: Homo sapiens, NCI-H1975, 96 h, read-out: inhibitory activity (IC50, nM) against tumor cells proliferation, H1975
[18] = test system: Human breast cancer cells (MDA-MB-231); assay: Tumor cell proliferation inhibition (CellTiter-Meiluncell Luminescent Cell Viability Assay), MDA-MB-231; conditions: MDA-MB-231, 96 h, read-out: inhibitory activity (IC50, nM) against tumor cells proliferation, MDA-MB-231

Compound	Weel substrate protein remaining % [1]	IKZF 1 substrate protein remaining % [2]	IKZF2 substrate protein remaining % [3]	IKZF3 substrate protein remaining % [4]	CK1a substrate protein remaining % [5]	GSPT1 substrate protein remaining % [6]	pIC50 [7]	IC50 [8]	IC50 [9]	IC50 [10]	IC50 [11]	IC50 [12]	IC50 [13]	IC50 [14]	IC50 [15]	IC50 [16]	IC50 [17]	IC50 [18]
O=C1CCC(N2Cc3cc(CN4CCN(c5ccc(Cl)cn5)CC4)ccc3C2=O)C(=O)N1 (stereo not drawn) [GT-04431, 3-(5-((4-(5-chloropyridin-2-yl)piperazin-1-yl)methyl)-1-oxoisoindolin-2-yl)piperidine-2,6-dione]	A (0% ≤ substrate protein remaining % ≤ 80%)	A (0% ≤ substrate protein remaining % ≤ 80%)	A (0% ≤ substrate protein remaining % ≤ 80%)	A (0% ≤ substrate protein remaining % ≤ 80%)	A (0% ≤ substrate protein remaining % ≤ 80%)	A (0% ≤ substrate protein remaining % ≤ 80%)	6.00 to 6.30	100 to 500 nM	10 to 50 nM	5 to 10 nM	50 to 100 nM	1 to 5 nM	5 to 10 nM	10 to 50 nM	50 to 100 nM	1 to 5 nM	50 to 100 nM	50 to 100 nM
O=C1CCC(N2Cc3cc(CN4CCN(c5ccc(Cl)c(Cl)c5)CC4)ccc3C2=O)C(=O)N1 (stereo not drawn) [GT-04437, 3-(5-((4-(3,4-dichlorophenyl)piperazin-1-yl)methyl)-1-oxoisoindolin-2-yl)piperidine-2,6-dione]	A (0% ≤ substrate protein remaining % ≤ 80%)	A (0% ≤ substrate protein remaining % ≤ 80%)	A (0% ≤ substrate protein remaining % ≤ 80%)	A (0% ≤ substrate protein remaining % ≤ 80%)	A (0% ≤ substrate protein remaining % ≤ 80%)	A (0% ≤ substrate protein remaining % ≤ 80%)	6.00 to 6.30	100 to 500 nM	10 to 50 nM	5 to 10 nM	50 to 100 nM	1 to 5 nM	10 to 50 nM	1 to 5 nM	50 to 100 nM	5 to 10 nM	50 to 100 nM	100 to 500 nM
O=C1CCC(N2Cc3cc(CN4CCN(c5ccccc5)CC4)ccc3C2=O)C(=O)N1 (stereo not drawn) [GT-04446, 3-(1-oxo-5-((4-phenylpiperazin-1-yl)methyl)isoindolin-2-yl)piperidine-2,6-dione]	A (0% ≤ substrate protein remaining % ≤ 80%)	A (0% ≤ substrate protein remaining % ≤ 80%)	A (0% ≤ substrate protein remaining % ≤ 80%)	A (0% ≤ substrate protein remaining % ≤ 80%)	A (0% ≤ substrate protein remaining % ≤ 80%)	A (0% ≤ substrate protein remaining % ≤ 80%)	6.00 to 6.30	100 to 500 nM	10 to 50 nM	5 to 10 nM	50 to 100 nM	1 to 5 nM	5 to 10 nM	1 to 5 nM	100 to 500 nM	5 to 10 nM	50 to 100 nM	100 to 500 nM
O=C1CCC(N2Cc3cc(CN4CCN(c5cccc(F)c5)CC4)ccc3C2=O)C(=O)N1 (stereo not drawn) [GT-04452, 3-(5-((4-(3-fluorophenyl)piperazin-1-yl)methyl)-1-oxoisoindolin-2-yl)piperidine-2,6-dione]	A (0% ≤ substrate protein remaining % ≤ 80%)	B (80%< substrate protein remaining %≤ 100%)	B (80%< substrate protein remaining %≤ 100%)	B (80%< substrate protein remaining %≤ 100%)	A (0% ≤ substrate protein remaining % ≤ 80%)	A (0% ≤ substrate protein remaining % ≤ 80%)	6.00 to 6.30	100 to 500 nM	10 to 50 nM	10 to 50 nM	100 to 500 nM	5 to 10 nM	10 to 50 nM	5 to 10 nM	100 to 500 nM	5 to 10 nM	100 to 500 nM	100 to 500 nM
O=C1CCC(N2Cc3cc(CN4CCN(c5ccc(F)cc5)CC4)ccc3C2=O)C(=O)N1 (stereo not drawn) [GT-04453, 3-(5-((4-(4-fluorophenyl)piperazin-1-yl)methyl)-1-oxoisoindolin-2-yl)piperidine-2,6-dione]	A (0% ≤ substrate protein remaining % ≤ 80%)	A (0% ≤ substrate protein remaining % ≤ 80%)	A (0% ≤ substrate protein remaining % ≤ 80%)	A (0% ≤ substrate protein remaining % ≤ 80%)	A (0% ≤ substrate protein remaining % ≤ 80%)	A (0% ≤ substrate protein remaining % ≤ 80%)	5.82 to 6.00	500 to 1000 nM	50 to 100 nM	10 to 50 nM	100 to 500 nM	5 to 10 nM	10 to 50 nM	10 to 50 nM	100 to 500 nM	5 to 10 nM	100 to 500 nM	100 to 500 nM
O=C1CCC(N2Cc3cc(CN4CCN(c5ccccc5Cl)CC4)ccc3C2=O)C(=O)N1 (stereo not drawn) [GT-04454, 3-(5-((4-(2-chlorophenyl)piperazin-1-yl)methyl)-1-oxoisoindolin-2-yl)piperidine-2,6-dione]	A (0% ≤ substrate protein remaining % ≤ 80%)	A (0% ≤ substrate protein remaining % ≤ 80%)	A (0% ≤ substrate protein remaining % ≤ 80%)	A (0% ≤ substrate protein remaining % ≤ 80%)	A (0% ≤ substrate protein remaining % ≤ 80%)	A (0% ≤ substrate protein remaining % ≤ 80%)	6.00 to 6.30	100 to 500 nM	10 to 50 nM	10 to 50 nM	100 to 500 nM	5 to 10 nM	10 to 50 nM	10 to 50 nM	100 to 500 nM	10 to 50 nM	100 to 500 nM	100 to 500 nM
